Experimental data: patent publication US7087762B2, “Long-lasting antimicrobial reaction product of allantoin and formaldehyde containing a low level of free formaldehyde” (ISP Investments Inc., priority 2002, dated 2006)

How the values were obtained:
Type in all cases: cell-based
[1] = system: Burkholderia cepacia ATCC 25416; assay: Minimum Inhibitory Concentration (MIC) test, tube dilution, static and cidal; conditions: B. cepacia
Procedure: (§1) The measurement of the lowest effective concentration of an anti-microbial or anti-microbial blend is important for recommending use concentrations. The MIC test is an in vitro tube dilution procedure used to identify effective concentrations of anti-microbials. In this test, the experimental compound is diluted by serial concentrations into nutrient culture media. Test organisms are then inoculated into the anti-microbial solutions.
(§2) If the experimental compound is effective, there is no growth observed in the test dilution tubes and they are clear. If the experimental compound is not effective, the test dilution tubes are cloudy, indicating growth. This test will determine static as well as cidal activity concentrations.
(§3) • 1. Laminar flow hood (Baker Sterilgard SG 400) • 2. 18×150 mm culture tubes • 3. Stock antimicrobial solution • 4. Media: Trypticase soy broth (BBL 11043) and AOAC Letheen broth (BBL 10914) • 5. Test organisms: Staphylococcus aureus ATCC 6538, Escherichia coli ATCC 8739, Pseudomonas aeruginosa ATCC 9027, Burkholderia cepacia ATCC 25416, Candida albicans ATCC 10231, and Aspergillus niger ATCC 16404. • 6. Spectrophotometer (Spectronic 20D, Milton Roy)
(§4) • 1. Antimicrobial stock solutions are prepared at predetermined concentrations (i.e., 10% through 0.07%) depending on the test material. Serial doubling dilutions are made as follows. Each culture tube contains 5 mls of trypticase soy broth. Five mls of the stock solution are added to the first tube and vortexed. 5 mls are then removed and placed into the second tube, (and so on, until the last tube). At the final test concentration, 5 mls of the broth/antimicrobial mixture is decanted out. • 2. The test organisms are prepared as with any organism inoculum (MLM 100-3, MLM 100-4, and MLM 100-5). A saline suspension of each organism is prepared. The bacterial organisms and the yeast are a standardized at a concentration of 1×10^6 cfu/ml. The mold inoculum is approximately 1×10^5 cfu/ml. • 3. Inoculate each culture tube with 0.10 mls of organism inoculum and vortex. • 4. Incubate bacterial tubes for 24 hours at 35° C. Incubate yeast or mold tubes for 48 hours at 25° C. Read for growth; turbid tubes for bacteria and yeast; mold clearly visible tubes. This is the minimum inhibitory concentration (static activity). • 5. After the tubes are read, transfer all “clear” tubes and the first cloudy (growth) tube into Letheen broth containing neutralizers. Incubate the Letheen broth tubes for 48 hours at the bacterial or fungal incubation temperatures. Read for growth; turbid tubes for bacteria and yeast; mold clearly visible in mold tubes. This is the cidal activity concentration. Discussion
(§5) The cidal activity of an anti-microbial can be rapidly screened by means of a MIC test before further evaluation tests, such as longer preservative efficacy tests, are performed. This test is a tube serial dilution procedure limited only by the water solubility of the material. Where anti-microbial materials are slightly insoluble, leaving the TSB broth turbid, a procedure modification can be made. Tubes are incubated for 24 hours (bacteria) or 48 hours (fungi) but instead of transfer to Letheen broth, the TSB tubes are streaked onto Letheen agar. The agar plates are then incubated appropriately and then read for absence or presence of growth. Depending on the degree of insolubility, a measure of cidal activity may be the only parameter measured.
(§6) Anti-microbial neutralization is important in this screening test. […] These are to be determined prior to testing.

[2] = system: Pseudomonas aeruginosa ATCC 9027; assay: as above; conditions: P. aeruginosa
Procedure: as §1, §2, §3, §4, §5, §6

[3] = system: Staphylococcus aureus ATCC 6538; assay: as above; conditions: Staph aureus
Procedure: as §1, §2, §3, §4, §5, §6

[4] = system: Candida albicans ATCC 10231; assay: as above; conditions: C. albicans
Procedure: as §1, §2, §3, §4, §5, §6

[5] = system: Escherichia coli ATCC 8739; assay: as above; conditions: E. coli
Procedure: as §1, §2, §3, §4, §5, §6

[6] = system: Aspergillus niger ATCC 16404; assay: as above; conditions: A. niger
Procedure: as §1, §2, §3, §4, §5, §6

[7] = system: PSA (Pseudomonas aeruginosa); assay: Preservative challenge test, screening emulsion
Procedure: (§7) A typical cosmetic emulsion was prepared for microbiological challenge testing and predetermined admixtures of a methylol compound and IPBC were added at various use levels. The emulsion thus prepared had the following composition:
(§8) To prepare the emulsion, Phases A and B were heated separately to 75°–80° C. Phase A then was added to Phase B with mixing. The mixture then was cooled to 55°–60° C. At this point the desired amount of the preservative admixture was added and the product was cooled to 50° C. while stirring. The citric acid solution then was added to adjust the pH and the mixture was stirred until a temperature of 30° C. was reached.
(§9) The challenge tests were carried out using the following microorganisms: SA, ECOLI, PSA, PC, AN and CAN, in this manner. 50 g aliquots of the test emulsion containing various amounts of the preservative admixture were inoculated with approximately 10^7–10^8 of the challenge organisms. The test samples then were stirred to disperse the challenge inoculum. The samples were incubated and assayed at 48 hours, 7, 14, 21 and 28 days. The assays were performed on 1 g of the test sample by serially diluting 10^1 to 10^6 of the original concentration. The plating medium for bacteria was Letheen agar and for fungi it was low pH Mycophil agar with Tween 20. Each plated sample was incubated for 48 hours at 37° C. for bacteria, 5 days at 25° C. for mold, and 3 days at 25° C. for fungi. After incubation, readings of the number of colonies per milliliter (cfu/ml) were made. At 21 days the test product was reinoculated with half of the original inoculum.

[8] = system: CAN (Candida albicans); assay: Preservative challenge test, screening emulsion
Procedure: as §7, §8, §9

In the case of `O=C1C(N(CO)C(=O)NCO)N(CO)C(=O)N1CO` (stereo not shown) [Germall II], the “CIDAL (cidal activity concentration)” value [1] is reported as 600 ppm, the “STATIC (minimum inhibitory concentration)” value [1] is reported as 150 ppm and the “CIDAL (cidal activity concentration)” value [2] is reported as 1250 ppm. For the same compound, the “STATIC (minimum inhibitory concentration)” value [2] was 600 ppm, the “CIDAL (cidal activity concentration)” value [3] was 1250 ppm and the “STATIC (minimum inhibitory concentration)” value [3] was 300 ppm. The “CIDAL (cidal activity concentration)” value [4] was greater than 5000 ppm, the “STATIC (minimum inhibitory concentration)” value [4] was 5000 ppm and the “CIDAL (cidal activity concentration)” value [5] was 1250 ppm. For the same compound, the “STATIC (minimum inhibitory concentration)” value [5] was 600 ppm, the “CIDAL (cidal activity concentration)” value [6] was 2500 ppm and the “STATIC (minimum inhibitory concentration)” value [6] was 2500 ppm. For the same compound, the “cfu/ml, 48 hrs” value ([7]; 250 ppm) was less than 10 cfu/ml, the “cfu/ml, 7 days” value ([7]; 250 ppm) was less than 10 cfu/ml and the “cfu/ml, 14 days” value ([7]; 250 ppm) was less than 10 cfu/ml. The “cfu/ml, 21 days” value ([7]; 250 ppm) was less than 10 cfu/ml, the “cfu/ml, 28 days” value ([7]; 250 ppm) was less than 10 cfu/ml and the “cfu/ml, 48 hrs” value ([7]; 500 ppm) was less than 10 cfu/ml. For the same compound, the “cfu/ml, 7 days” value ([7]; 500 ppm) was less than 10 cfu/ml, the “cfu/ml, 14 days” value ([7]; 500 ppm) was less than 10 cfu/ml and the “cfu/ml, 21 days” value ([7]; 500 ppm) was less than 10 cfu/ml. The “cfu/ml, 28 days” value ([7]; 500 ppm) was less than 10 cfu/ml, the “cfu/ml, 48 hrs” value ([7]; 1000 ppm) was less than 10 cfu/ml and the “cfu/ml, 7 days” value ([7]; 1000 ppm) was less than 10 cfu/ml. The “cfu/ml, 14 days” value ([7]; 1000 ppm) was less than 10 cfu/ml, the “cfu/ml, 21 days” value ([7]; 1000 ppm) was less than 10 cfu/ml and the “cfu/ml, 28 days” value ([7]; 1000 ppm) was less than 10 cfu/ml. The “cfu/ml, 48 hrs” value ([7]; 2000 ppm) was less than 10 cfu/ml, the “cfu/ml, 7 days” value ([7]; 2000 ppm) was less than 10 cfu/ml and the “cfu/ml, 14 days” value ([7]; 2000 ppm) was less than 10 cfu/ml. For the same compound, the “cfu/ml, 21 days” value ([7]; 2000 ppm) was less than 10 cfu/ml, the “cfu/ml, 28 days” value ([7]; 2000 ppm) was less than 10 cfu/ml and the “cfu/ml, 48 hrs” value ([8]; 250 ppm) was 290,000 cfu/ml. The “cfu/ml, 7 days” value ([8]; 250 ppm) was 170,000 cfu/ml, the “cfu/ml, 14 days” value ([8]; 250 ppm) was 71,000 cfu/ml and the “cfu/ml, 21 days” value ([8]; 250 ppm) was 46,000 cfu/ml. The “cfu/ml, 28 days” value ([8]; 250 ppm) was 680,000 cfu/ml, the “cfu/ml, 48 hrs” value ([8]; 500 ppm) was 170,000 cfu/ml and the “cfu/ml, 7 days” value ([8]; 500 ppm) was 100,000 cfu/ml. For the same compound, the “cfu/ml, 14 days” value ([8]; 500 ppm) was 90,000 cfu/ml, the “cfu/ml, 21 days” value ([8]; 500 ppm) was 320,000 cfu/ml and the “cfu/ml, 28 days” value ([8]; 500 ppm) was 930,000 cfu/ml. The “cfu/ml, 48 hrs” value ([8]; 1000 ppm) was 160,000 cfu/ml, the “cfu/ml, 7 days” value ([8]; 1000 ppm) was 78,000 cfu/ml and the “cfu/ml, 14 days” value ([8]; 1000 ppm) was 63,000 cfu/ml. For the same compound, the “cfu/ml, 21 days” value ([8]; 1000 ppm) was 260,000 cfu/ml, the “cfu/ml, 28 days” value ([8]; 1000 ppm) was 210,000 cfu/ml and the “cfu/ml, 48 hrs” value ([8]; 2000 ppm) was 150 cfu/ml. The “cfu/ml, 7 days” value ([8]; 2000 ppm) was 9,600 cfu/ml, the “cfu/ml, 14 days” value ([8]; 2000 ppm) was 48,900 cfu/ml and the “cfu/ml, 21 days” value ([8]; 2000 ppm) was 490,000 cfu/ml. For the same compound, the “cfu/ml, 28 days” value ([8]; 2000 ppm) was 210,000 cfu/ml.
